Source: ChEMBL document CHEMBL4033626, “Design, synthesis, and structure-activity relationship study of halogen containing 2-benzylidene-1-indanone derivatives for inhibition of LPS-stimulated ROS production in RAW 264.7 macrophages” (Eur J Med Chem, 2017)
The source made the active and inactive calls. The calls are words filed in the database; no cut-off is given here.

Key:
RAW264.7 [1] = test: Inhibition of LPS-stimulated ROS production in mouse RAW264.7 cells preincubated for 1 hr followed by LPS stimulation after 24 hrs by CMH2DCFDA probe-based fluorescence assay
RAW264.7 [2] = test: Cytotoxicity against mouse RAW264.7 cells at 10 uM after 24 hrs by MTS assay; type: cell-based; conditions: raw264.7, 24 h
[3] = Cytotoxicity against mouse RAW264.7 cells assessed as cell viability at 10 uM after 24 hrs by MTS assay relative to control; type: cell-based; conditions: read-out: Activity
Mus musculus = species on record: Mus musculus; test: Inhibition of LPS-stimulated NADPH oxidase activation in mouse RAW264.7 cells assessed as decrease in superoxide formation at 1 uM using NADPH as substrate preincubated for 1 hr followed by LPS stimulation for 24 hrs and subsequent substrate addition after 30 mins by lucigenin-based chemiluminescence assay; type: cell-based

Row | SMILES | IC50 (RAW264.7 [1]) | Activity (RAW264.7 [2]) | viability at 24 h, 10 µM [3] | inhibition (Mus musculus)
1 | O=C1/C(=C/c2cccc(C(F)(F)F)c2)Cc2cccc(O)c21 | > 10 µM | Non-Toxic |  | 
2 | O=C1/C(=C/c2cccc(OC(F)(F)F)c2)Cc2ccccc21 | > 10 µM | Non-Toxic |  | 
3 | O=C1/C(=C/c2cccc(C(F)(F)F)c2)Cc2cc(O)ccc21 | > 10 µM | Non-Toxic |  | 
4 | O=C1/C(=C/c2cccc(F)c2)Cc2ccc(O)cc21 | > 10 µM | Non-Toxic |  | 
5 | O=C1/C(=C/c2ccccc2F)Cc2cc(O)ccc21 | > 10 µM | Non-Toxic |  | 
6 | O=C1/C(=C/c2ccc(OC(F)(F)F)cc2)Cc2ccc(O)cc21 | > 10 µM | Non-Toxic |  | 
7 | O=C1/C(=C/c2ccc(F)cc2)Cc2cc(O)ccc21 | > 10 µM | Non-Toxic |  | 
8 | O=C1/C(=C/c2ccc(OC(F)(F)F)cc2)Cc2c(O)cccc21 | > 10 µM | Non-Toxic |  | 
9 | O=C1/C(=C/c2ccc(Br)cc2)Cc2cccc(O)c21 | > 10 µM | Non-Toxic |  | 
10 | O=C1/C(=C/c2cccc(C(F)(F)F)c2)Cc2ccccc21 | > 10 µM | Non-Toxic |  | 
11 | O=C1/C(=C/c2cccc(Br)c2)Cc2cccc(O)c21 | > 10 µM | Non-Toxic |  | 
12 | O=C1/C(=C/c2ccccc2Br)Cc2cccc(O)c21 | > 10 µM | Non-Toxic |  | 
13 | O=C1/C(=C/c2cccc(F)c2)Cc2c(O)cccc21 | > 10 µM | Non-Toxic |  | 
14 | O=C1/C(=C/c2ccc(F)cc2)Cc2ccc(O)cc21 | > 10 µM | Non-Toxic |  | 
15 | O=C1/C(=C/c2ccccc2C(F)(F)F)Cc2cc(O)ccc21 | > 10 µM | Non-Toxic |  | 
16 | O=C1/C(=C/c2ccccc2)Cc2ccccc21 | > 10 µM |  | < 90% | 
17 | O=C1/C(=C/c2ccc(OC(F)(F)F)cc2)Cc2ccccc21 | > 10 µM | Non-Toxic |  | 
18 | O=C1/C(=C/c2ccc(F)cc2)Cc2ccccc21 | > 10 µM | Non-Toxic |  | 
19 | O=C1/C(=C/c2ccc(Br)cc2)Cc2c(O)cccc21 | > 10 µM | Non-Toxic |  | 
20 | O=C1/C(=C/c2ccc(C(F)(F)F)cc2)Cc2c(O)cccc21 | > 10 µM | Non-Toxic |  | 
21 | O=C1/C(=C/c2ccccc2C(F)(F)F)Cc2c(O)cccc21 | > 10 µM | Non-Toxic |  | 

Row | SMILES | IC50 (RAW264.7 [1]) | Activity (RAW264.7 [2]) | viability at 24 h, 10 µM [3] | inhibition (Mus musculus)
22 | O=C1/C(=C/c2ccccc2Br)Cc2c(O)cccc21 | > 10 µM | Non-Toxic |  | 
23 | O=C1/C(=C/c2cccc(F)c2)Cc2cc(O)ccc21 | > 10 µM | Non-Toxic |  | 
24 | O=C1/C(=C/c2ccccc2C(F)(F)F)Cc2ccccc21 | > 10 µM | Non-Toxic |  | 
25 | O=C1/C(=C/c2cccc(Br)c2)Cc2ccccc21 | > 10 µM | Non-Toxic |  | 
26 | O=C1/C(=C/c2ccccc2Br)Cc2cc(O)ccc21 | 8.18 µM | Non-Toxic |  | 
27 | O=C1/C(=C/c2ccccc2F)Cc2ccc(O)cc21 | > 10 µM | Non-Toxic |  | 
28 | O=C1/C(=C/c2cccc(F)c2)Cc2ccccc21 | > 10 µM | Non-Toxic |  | 
29 | O=C1/C(=C/c2ccccc2F)Cc2ccccc21 | > 10 µM | Non-Toxic |  | 
30 | O=C1/C(=C/c2ccc(OC(F)(F)F)cc2)Cc2cc(O)ccc21 | > 10 µM | Non-Toxic |  | 
31 | O=C1/C(=C/c2ccccc2Br)Cc2ccccc21 | > 10 µM | Non-Toxic |  | 
32 | O=C1/C(=C/c2cccc(C(F)(F)F)c2)Cc2c(O)cccc21 | > 10 µM | Non-Toxic |  | 
33 | O=C1/C(=C/c2cccc(OC(F)(F)F)c2)Cc2ccc(O)cc21 | > 10 µM | Non-Toxic |  | 
34 | O=C1/C(=C/c2ccc(C(F)(F)F)cc2)Cc2ccccc21 | > 10 µM | Non-Toxic |  | 
35 | O=C1/C(=C/c2ccccc2F)Cc2c(O)cccc21 | > 10 µM | Non-Toxic |  | 
36 | O=C1/C(=C/c2ccccc2OC(F)(F)F)Cc2c(O)cccc21 | > 10 µM | Non-Toxic |  | 
37 | O=C1/C(=C/c2cccc(Br)c2)Cc2c(O)cccc21 | > 10 µM | Non-Toxic |  | 
38 | O=C1/C(=C/c2cccc(OC(F)(F)F)c2)Cc2c(O)cccc21 | > 10 µM | Non-Toxic |  | 
39 | O=C1/C(=C/c2ccc(F)cc2)Cc2c(O)cccc21 | > 10 µM | Non-Toxic |  | 
40 | O=C1/C(=C/c2ccc(C(F)(F)F)cc2)Cc2ccc(O)cc21 | > 10 µM | Non-Toxic |  | 
41 | O=C1/C(=C/c2ccc(Br)cc2)Cc2ccccc21 | > 10 µM | Non-Toxic |  | 

Now from value to compound, other results behind:

Row | IC50 (RAW264.7 [1]) | SMILES | Activity (RAW264.7 [2]) | viability at 24 h, 10 µM [3] | inhibition (Mus musculus)
42 | 4.55 µM | O=C1/C(=C/c2cccc(C(F)(F)F)c2)Cc2ccc(O)cc21 | Non-Toxic |  | 
43 | 3.89 µM | O=C1/C(=C/c2ccc(C(F)(F)F)cc2)Cc2cccc(O)c21 | Non-Toxic |  | 
44 | 1.94 µM | O=C1/C(=C/c2ccccc2C(F)(F)F)Cc2cccc(O)c21 | Non-Toxic |  | 
45 | 5.61 µM | O=C1/C(=C/c2cccc(F)c2)Cc2cccc(O)c21 | Non-Toxic |  | 
46 | 2.61 µM | O=C1/C(=C/c2ccccc2C(F)(F)F)Cc2ccc(O)cc21 | Non-Toxic |  | 
47 | 3.9 µM | O=C1/C(=C/c2cccc(Br)c2)Cc2ccc(O)cc21 | Non-Toxic |  | 
48 | 3.38 µM | O=C1/C(=C/c2ccccc2OC(F)(F)F)Cc2cc(O)ccc21 | Non-Toxic |  | 
49 | 3.25 µM | O=C1/C(=C/c2ccccc2OC(F)(F)F)Cc2cccc(O)c21 | Non-Toxic |  | 
50 | 6.05 µM | O=C1/C(=C/c2ccc(Br)cc2)Cc2cc(O)ccc21 | Non-Toxic |  | 
51 | 3.82 µM | O=C1/C(=C/c2ccccc2F)Cc2cccc(O)c21 | Non-Toxic |  | 
52 | 4.62 µM | O=C1/C(=C/c2cccc(OC(F)(F)F)c2)Cc2cccc(O)c21 | Non-Toxic |  | 
53 | 4 µM | O=C1/C(=C/c2ccccc2Br)Cc2ccc(O)cc21 | Non-Toxic |  | 
54 | 7.27 µM | O=C1/C(=C/c2ccccc2OC(F)(F)F)Cc2ccccc21 | Non-Toxic |  | 
55 | 8.01 µM | O=C1/C(=C/c2cccc(OC(F)(F)F)c2)Cc2cc(O)ccc21 | Non-Toxic |  | 
56 | 1.33 µM | O=C1/C(=C/c2ccccc2OC(F)(F)F)Cc2ccc(O)cc21 | Non-Toxic |  | Active
57 | 5.06 µM | O=C1/C(=C/c2ccc(F)cc2)Cc2cccc(O)c21 | Non-Toxic |  | 
58 | 5.55 µM | O=C1/C(=C/c2ccc(C(F)(F)F)cc2)Cc2cc(O)ccc21 | Non-Toxic |  | 
59 | 3.15 µM | O=C1/C(=C/c2ccc(OC(F)(F)F)cc2)Cc2cccc(O)c21 | Non-Toxic |  | 
60 | 4.05 µM | O=C1/C(=C/c2cccc(Br)c2)Cc2cc(O)ccc21 | Non-Toxic |  | 
61 | 4.27 µM | O=C1/C(=C/c2ccc(Br)cc2)Cc2ccc(O)cc21 |  | < 90% | 
